The results in this text go back to US20250326771A1, “PIPERAZINE DERIVATIVES USEFUL IN HIV THERAPY” (VIIV HEALTHCARE COMPANY, priority 2022, published 2025).

Molecules are shown by their SMILES.

The test system of experiment [1] is Jurkat HIV-luciferase clones. The experiment in a line: Jurkat latency reversal assay. As to conditions: Homo sapiens, 48 h; Jurkat latency reversal assay potency; read-out: Jurkat pEC50 (converted). The experiment is classed as cell-based. An outline of the steps:
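Luminescence read-out: Steady-Glo after 48 h, 37° C, on mixed Jurkat HIV-luc clones (C16, 115, N6; 5,000 cells/well total). Cpd 14-pt 3-fold dilutions, duplicate, top 10 μM, 0.5% DMSO. EC50 + max % activation vs vehicle via 4-parameter fit.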

The target of a further experiment is XIAP-BIR2 (Homo sapiens (Human), UniProt P98170). The experiment in a line: BIR binding assay (FRET competition), XIAP BIR2. Conditions: FRET competition; read-out: XIAP BIR2 (pIC50) (converted). An outline of the steps:
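Compounds in a 15-point, 3-fold series competed with an AlexaFluor647 SMAC peptide (AVPIAQKSE, 200 nM) for 200 nM His-tagged XIAP-BIR2 over 60 min in pH 7.4 HEPES/CHAPS/DTT buffer. Eu-W1024 (2 nM) was then added for 30 min. IC50 and pIC50 were derived from the 615 nm/665 nm emission ratio by variable-slope fit.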

The next experiment has as its target XIAP-BIR3 (Homo sapiens (Human), UniProt P98170). The experiment in a line: BIR binding assay (FRET competition), XIAP BIR3. As to conditions: for XIAP BIR3 vs BIR2 separation window: fold separation (FS) for XIAP. An outline of the steps:
(§1)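 Each domain is run separately at its own level: 50 nM cIAP1-BIR3, 100 nM XIAP-BIR3, 325 nM for cIAP1-BIR2 or cIAP2-BIR2. Probe is a 200 nM fluorescent SMAC peptide, and the value is IC50 from FRET competition.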

Another experiment addresses cIAP1-BIR3 (Homo sapiens (Human), UniProt Q13490). The experiment in a line: BIR binding assay (FRET competition), cIAP1 BIR3. Conditions: for cIAP1 BIR3 vs BIR2 separation window: fold separation (FS) for cIAP1. In short, it runs like this:
as §1

A further experiment deals with cIAP2-BIR3 (Homo sapiens (Human), UniProt Q13489). The experiment in a line: BIR binding assay (FRET competition), cIAP2 BIR3. Conditions: for cIAP2 BIR3 vs BIR2 separation window: fold separation (FS) for cIAP2.
cIAP2-BIR3, sequence (Q13489 238-349): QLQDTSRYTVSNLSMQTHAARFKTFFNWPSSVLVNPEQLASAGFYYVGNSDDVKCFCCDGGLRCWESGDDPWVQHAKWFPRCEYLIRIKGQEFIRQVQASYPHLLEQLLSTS
Another experiment deals with cIAP1-BIR2 (Homo sapiens (Human), UniProt Q13490). The experiment in a line: BIR binding assay (FRET competition), cIAP1 BIR2. An outline of the steps: as §1
cIAP1-BIR2, sequence (Q13490 173-257): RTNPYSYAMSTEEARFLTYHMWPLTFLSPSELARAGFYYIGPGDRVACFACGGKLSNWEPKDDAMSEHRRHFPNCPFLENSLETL
The next experiment concerns the target cIAP2-BIR2 (Homo sapiens (Human), UniProt Q13489). The experiment in a line: BIR binding assay (FRET competition), cIAP2 BIR2. An outline of the steps: as §1

cIAP1-BIR3, sequence (Q13490 253-363): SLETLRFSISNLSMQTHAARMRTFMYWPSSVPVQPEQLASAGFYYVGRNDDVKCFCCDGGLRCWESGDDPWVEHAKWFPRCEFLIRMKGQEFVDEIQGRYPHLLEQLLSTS
XIAP-BIR2, sequence (P98170 124-240): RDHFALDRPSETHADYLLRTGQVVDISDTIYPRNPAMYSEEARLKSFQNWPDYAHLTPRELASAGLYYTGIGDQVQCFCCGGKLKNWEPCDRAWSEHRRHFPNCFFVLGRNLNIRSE
cIAP2-BIR2, sequence (Q13489 158-242): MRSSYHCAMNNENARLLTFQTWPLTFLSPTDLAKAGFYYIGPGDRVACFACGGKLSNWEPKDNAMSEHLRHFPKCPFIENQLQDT
XIAP-BIR3, sequence (P98170 241-356): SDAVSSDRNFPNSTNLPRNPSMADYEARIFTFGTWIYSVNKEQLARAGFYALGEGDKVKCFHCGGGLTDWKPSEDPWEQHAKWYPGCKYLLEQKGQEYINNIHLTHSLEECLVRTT

Turning to `C[C@@H]1CN(CC(=O)N2CC(C)(C)c3[nH]c(=O)c(Cc4ccc(F)cc4)cc32)[C@@H](CN2CCN(CCc3cn(CCCC(=O)N4CCN(C[C@H]5CN[C@H](C)CN5CC(=O)N5CC(C)(C)c6[nH]c(=O)c(Cc7ccc(F)cc7)cc65)[C@H](C)C4)nn3)C[C@H]2C)CN1` [Compound 157], the EC50 in experiment [1] was 63.1 to 316 nM. The IC50 on XIAP-BIR2 was 10000 to 51300 nM; at XIAP-BIR3 it was 15.8 to 31.6 nM; on cIAP1-BIR3, 7.94 to 15.8 nM; at cIAP2-BIR3, 7.94 to 15.8 nM; at cIAP1-BIR2, 1000 to 3160 nM; on cIAP2-BIR2, 22.4 to 1000 nM. In addition, on XIAP-BIR3, the “XIAP BIR3 vs BIR2 separation window” value is given as “++++ (FS>10,000)”. Further, the “cIAP1 BIR3 vs BIR2 separation window” value at cIAP1-BIR3 is reported as “++ (1,000>FS>100)”. For the same compound, the “cIAP2 BIR3 vs BIR2 separation window” value at cIAP2-BIR3 is recorded as “++ (1,000>FS>100)”.
Take `C[C@@H]1CN(CC(=O)N2CC(C)(C)c3[nH]c(=O)c(Cc4ccc(F)cc4)cc32)[C@@H](CN2CCN(CCc3cn(CCCCC(=O)N4CCN(C[C@H]5CN[C@H](C)CN5CC(=O)N5CC(C)(C)c6[nH]c(=O)c(Cc7ccc(F)cc7)cc65)[C@H](C)C4)nn3)C[C@H]2C)CN1` [Compound 158]: the EC50 in experiment [1] was 63.1 to 316 nM. For the same compound, the IC50 was 10000 to 51300 nM on XIAP-BIR2; 7.94 to 15.8 nM at XIAP-BIR3; 7.94 to 15.8 nM at cIAP1-BIR3; 7.94 to 15.8 nM on cIAP2-BIR3; 1000 to 3160 nM on cIAP1-BIR2; 22.4 to 1000 nM on cIAP2-BIR2. Further, on XIAP-BIR3, the “XIAP BIR3 vs BIR2 separation window” value is “++++ (FS>10,000)”. In addition, on cIAP1-BIR3, the “cIAP1 BIR3 vs BIR2 separation window” value is “++ (1,000>FS>100)”. Also, the “cIAP2 BIR3 vs BIR2 separation window” value on cIAP2-BIR3 is given as “++ (1,000>FS>100)”.
For the compound `C[C@@H]1CN(CC(=O)N2CC(C)(C)c3[nH]c(=O)c(Cc4ccc(F)cc4)cc32)[C@@H](CN2CCO[C@H](C(=O)NCC(=O)N3CCN(C[C@H]4CN[C@H](C)CN4CC(=O)N4CC(C)(C)c5[nH]c(=O)c(Cc6ccc(F)cc6)cc54)[C@H](C)C3)C2)CN1` [Compound 159, (S)-4-(((2R,5R)-1-(2-(6-(4-fluorobenzyl)-3,3-dimethyl-5-oxo-2,3,4,5-tetrahydro-1H-pyrrolo[3,2-b]pyridin-1-yl)-2-oxoethyl)-5-methylpiperazin-2-yl)methyl)-N-(2-((R)-4-(((2R,5R)-1-(2-(6-(4-fluorobenzyl)-3,3-dimethyl-5-oxo-2,3,4,5-tetrahydro-1H-pyrrolo[3,2-b]pyridin-1-yl)-2-oxoethyl)-5-methylpiperazin-2-yl)methyl)-3-methylpiperazin-1-yl)-2-oxoethyl)morpholine-2-carboxamide], the EC50 in experiment [1] was 63.1 to 316 nM. In addition, the IC50 at XIAP-BIR2 is 10000 to 51300 nM; on XIAP-BIR3, 7.94 to 15.8 nM; at cIAP1-BIR3, 7.94 to 15.8 nM; on cIAP2-BIR3 it was 1.38 to 7.94 nM; on cIAP1-BIR2 it was 22.4 to 1000 nM; at cIAP2-BIR2, 22.4 to 1000 nM. For the same compound, at XIAP-BIR3, the “XIAP BIR3 vs BIR2 separation window” value was “++++ (FS>10,000)”. Besides, the “cIAP1 BIR3 vs BIR2 separation window” value at cIAP1-BIR3 was “++ (1,000>FS>100)”. For the same compound, at cIAP2-BIR3, the “cIAP2 BIR3 vs BIR2 separation window” value is on record as “+++ (10,000>FS>1,000)”.
As to `C[C@@H]1CN(CC(=O)N2CC(C)(C)c3[nH]c(=O)c(Cc4ccc(F)cc4)cc32)[C@@H](CN2CCO[C@H](C(=O)NCCCC(=O)N3CCN(C[C@H]4CN[C@H](C)CN4CC(=O)N4CC(C)(C)c5[nH]c(=O)c(Cc6ccc(F)cc6)cc54)[C@H](C)C3)C2)CN1` [Compound 160, (S)-4-(((2R,5R)-1-(2-(6-(4-fluorobenzyl)-3,3-dimethyl-5-oxo-2,3,4,5-tetrahydro-1H-pyrrolo[3,2-b]pyridin-1-yl)-2-oxoethyl)-5-methylpiperazin-2-yl)methyl)-N-(4-((R)-4-(((2R,5R)-1-(2-(6-(4-fluorobenzyl)-3,3-dimethyl-5-oxo-2,3,4,5-tetrahydro-1H-pyrrolo[3,2-b]pyridin-1-yl)-2-oxoethyl)-5-methylpiperazin-2-yl)methyl)-3-methylpiperazin-1-yl)-4-oxobutyl)morpholine-2-carboxamide], the EC50 in experiment [1] was 63.1 to 316 nM. The IC50 at XIAP-BIR2 was 10000 to 51300 nM; at XIAP-BIR3, 7.94 to 15.8 nM; at cIAP1-BIR3, 7.94 to 15.8 nM; at cIAP2-BIR3, 7.94 to 15.8 nM; on cIAP1-BIR2 it was 1000 to 3160 nM; on cIAP2-BIR2, 1000 to 3160 nM. In addition, on XIAP-BIR3, the “XIAP BIR3 vs BIR2 separation window” value was “++++ (FS>10,000)”. Also, the “cIAP1 BIR3 vs BIR2 separation window” value on cIAP1-BIR3 is reported as “++ (1,000>FS>100)”. At cIAP2-BIR3, the “cIAP2 BIR3 vs BIR2 separation window” value is “+++ (10,000>FS>1,000)”.
As to `Cc1ccc(Cc2cc3c([nH]c2=O)C(C)(C)CN3C(=O)CN2C[C@@H](C)NC[C@@H]2CN2CCO[C@H](C(=O)NCc3ccc(CNC(=O)[C@@H]4CN(C[C@H]5CN[C@H](C)CN5CC(=O)N5CC(C)(C)c6[nH]c(=O)c(Cc7ccc(C)cc7)cc65)CCO4)cc3)C2)cc1` [Compound 163, (2S,2′S)-N,N′-(1,4-phenylenebis(methylene))bis(4-(((2R,5R)-1-(2-(3,3-dimethyl-6-(4-methylbenzyl)-5-oxo-2,3,4,5-tetrahydro-1H-pyrrolo[3,2-b]pyridin-1-yl)-2-oxoethyl)-5-methylpiperazin-2-yl)methyl)morpholine-2-carboxamide)], in experiment [1], the EC50 is 12.6 to 63.1 nM. For the same compound, the IC50 is 10000 to 51300 nM at XIAP-BIR2; 7.94 to 15.8 nM on XIAP-BIR3; 1.38 to 7.94 nM at cIAP1-BIR3; 1.38 to 7.94 nM at cIAP2-BIR3; 22.4 to 1000 nM on cIAP1-BIR2; 22.4 to 1000 nM at cIAP2-BIR2. In addition, the “XIAP BIR3 vs BIR2 separation window” value on XIAP-BIR3 is reported as “++++ (FS>10,000)”. For the same compound, on cIAP1-BIR3, the “cIAP1 BIR3 vs BIR2 separation window” value was “++ (1,000>FS>100)”. In addition, on cIAP2-BIR3, the “cIAP2 BIR3 vs BIR2 separation window” value is “+++ (10,000>FS>1,000)”.
For the compound `C[C@@H]1CN(CC(=O)N2CC(C)(C)c3[nH]c(=O)c(Cc4ccc(C(F)F)cc4)cc32)[C@@H](CN2CCO[C@H](C(=O)NCc3ccc(CNC(=O)[C@@H]4CN(C[C@H]5CN[C@H](C)CN5CC(=O)N5CC(C)(C)c6[nH]c(=O)c(Cc7ccc(C(F)F)cc7)cc65)CCO4)cc3)C2)CN1` [Compound 166, (2S,2′S)-N,N′-(1,4-phenylenebis(methylene)) bis(4-(((2R,5R)-1-(2-(6-(4-(difluoromethyl)benzyl)-3,3-dimethyl-5-oxo-2,3,4,5-tetrahydro-1H-pyrrolo[3,2-b]pyridin-1-yl)-2-oxoethyl)-5-methylpiperazin-2-yl)methyl)morpholine-2-carboxamide)], the EC50 in experiment [1] is 316 to 3310 nM. Further, the IC50 on XIAP-BIR2 is 10000 to 51300 nM; at XIAP-BIR3 it was 15.8 to 31.6 nM; on cIAP1-BIR3, 7.94 to 15.8 nM; at cIAP2-BIR3, 1.38 to 7.94 nM; at cIAP1-BIR2 it was 22.4 to 1000 nM; on cIAP2-BIR2, 22.4 to 1000 nM. Moreover, the “XIAP BIR3 vs BIR2 separation window” value at XIAP-BIR3 is on record as “++++ (FS>10,000)”. In addition, the “cIAP1 BIR3 vs BIR2 separation window” value on cIAP1-BIR3 is recorded as “++ (1,000>FS>100)”. Further, the “cIAP2 BIR3 vs BIR2 separation window” value at cIAP2-BIR3 is on record as “+++ (10,000>FS>1,000)”.
